# Source: PMC7002685, “Inhibition of vascular calcification by inositol phosphates derivatized with ethylene glycol oligomers” (Nature Communications, 2020)
# Experiments:
# [1] = system: vascular calcification; assay: Vitamin D3 (oral) + warfarin diet rat model of VC
# [2] = biological target: T1, Cannabinoid CB2 (Homo sapiens, UniProt P34972); assay: Off-target 217100; format: binding
# T1 construct: purchased Eurofins Panlabs Discovery Services Taiwan, Ltd
# Description: (§1) The potential off-target activity of 10 µM (OEG2)2-IP4 was assessed against a panel of 87 enzymes, receptors, or ion channels that are used in standard safety pharmacology screens.
# (§2) 3.2. Off-target screening assay
# (§3) The experiments were conducted by a contract research organization (Eurofins Panlabs Discovery Services Taiwan, Ltd.) and details on the respective assays can be retrieved via the catalog number provided in Supplementary Table 11 from the company’s webpage
# (§4) (https://www.eurofinsdiscoveryservices.com/). […]
# (§5) At sacrifice the left tibia of animals of the rat model with dietary adenine/high-phosphate-induced uremia and VC was collected, fixed with 70% v/v EtOH and embedded in methyl methacrylate. The trabecular bone compartment is known to be the most metabolic active i.e. actively re-structured bone compartment in CKD. Therefore, histomorphometric and micro-computed tomography (µCT) analysis of bone was performed on the trabecular compartment. Tibial sections were Goldner-stained for histomorphometric analysis of the proximal metaphysis using the AxioVision Release 4.5 software, as […]
# (§6) described previously5. […]
# [3] = biological target: T2, Protein Tyrosine Kinase, Insulin Receptor (Homo sapiens, UniProt P06213); assay: Off-target 174990; format: biochemical
# T2 construct: purchased Eurofins Panlabs Discovery Services Taiwan, Ltd
# T2 sequence (P06213 28-1382): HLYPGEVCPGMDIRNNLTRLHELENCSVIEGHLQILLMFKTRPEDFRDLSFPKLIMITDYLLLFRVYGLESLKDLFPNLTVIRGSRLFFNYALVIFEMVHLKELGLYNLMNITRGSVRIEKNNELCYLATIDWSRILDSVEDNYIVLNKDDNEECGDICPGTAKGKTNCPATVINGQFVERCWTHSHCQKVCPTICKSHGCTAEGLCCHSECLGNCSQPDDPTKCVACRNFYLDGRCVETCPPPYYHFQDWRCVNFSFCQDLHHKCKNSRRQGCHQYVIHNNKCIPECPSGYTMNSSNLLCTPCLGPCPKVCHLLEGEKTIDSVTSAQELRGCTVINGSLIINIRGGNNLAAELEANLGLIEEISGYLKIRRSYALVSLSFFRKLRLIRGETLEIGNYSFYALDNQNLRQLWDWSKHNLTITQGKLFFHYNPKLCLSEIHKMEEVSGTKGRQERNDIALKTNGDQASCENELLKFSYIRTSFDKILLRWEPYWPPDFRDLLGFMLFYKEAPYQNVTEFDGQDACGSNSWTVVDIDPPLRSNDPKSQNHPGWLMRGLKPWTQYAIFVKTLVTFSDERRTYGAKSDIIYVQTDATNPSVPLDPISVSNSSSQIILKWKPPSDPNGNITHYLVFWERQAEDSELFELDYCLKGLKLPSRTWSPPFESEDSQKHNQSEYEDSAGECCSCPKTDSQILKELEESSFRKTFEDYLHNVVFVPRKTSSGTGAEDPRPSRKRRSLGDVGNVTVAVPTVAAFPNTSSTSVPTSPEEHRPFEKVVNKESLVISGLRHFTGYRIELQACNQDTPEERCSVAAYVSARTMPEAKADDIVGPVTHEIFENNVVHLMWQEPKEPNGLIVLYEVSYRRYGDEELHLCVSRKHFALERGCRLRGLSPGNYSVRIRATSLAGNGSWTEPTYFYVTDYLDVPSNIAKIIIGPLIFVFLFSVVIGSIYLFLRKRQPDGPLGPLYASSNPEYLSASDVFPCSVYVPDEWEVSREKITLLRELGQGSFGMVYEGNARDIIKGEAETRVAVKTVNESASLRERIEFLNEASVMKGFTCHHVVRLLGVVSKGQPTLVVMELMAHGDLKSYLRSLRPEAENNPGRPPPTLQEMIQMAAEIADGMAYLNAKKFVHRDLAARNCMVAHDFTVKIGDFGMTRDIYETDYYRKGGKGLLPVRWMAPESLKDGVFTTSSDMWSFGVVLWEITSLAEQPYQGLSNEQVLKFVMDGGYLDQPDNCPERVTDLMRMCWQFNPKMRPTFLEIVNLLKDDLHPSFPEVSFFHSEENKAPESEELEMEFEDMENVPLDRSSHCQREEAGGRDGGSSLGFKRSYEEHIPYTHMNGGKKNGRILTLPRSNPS
# Description: as §1, §2, §3, §4, §5, §6
# [4] = Plasma calcium after s.c. administration in healthy rats; format: in vivo, rat; conditions: 50 mg/kg s.c., acute or sub-chronic (7 days), at tmax of 30 min
# [5] = biological target: T3, Angiotensin AT1 (Homo sapiens, UniProt P30556); assay: Off-target 210030; format: binding
# T3 construct: purchased Eurofins Panlabs Discovery Services Taiwan, Ltd
# T3 sequence (P30556 whole entry): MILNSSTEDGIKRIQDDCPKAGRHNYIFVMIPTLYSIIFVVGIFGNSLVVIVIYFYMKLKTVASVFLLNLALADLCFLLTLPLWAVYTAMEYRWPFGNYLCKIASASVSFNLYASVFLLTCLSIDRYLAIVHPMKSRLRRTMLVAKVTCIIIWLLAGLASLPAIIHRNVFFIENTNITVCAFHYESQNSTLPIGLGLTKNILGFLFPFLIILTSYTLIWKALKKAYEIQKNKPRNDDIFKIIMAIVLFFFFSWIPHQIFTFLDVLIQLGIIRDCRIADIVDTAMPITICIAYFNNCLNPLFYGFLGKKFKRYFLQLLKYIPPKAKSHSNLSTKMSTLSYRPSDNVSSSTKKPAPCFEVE
# Description: as §1, §2, §3, §4, §5, §6
# T1 sequence (P34972 whole entry): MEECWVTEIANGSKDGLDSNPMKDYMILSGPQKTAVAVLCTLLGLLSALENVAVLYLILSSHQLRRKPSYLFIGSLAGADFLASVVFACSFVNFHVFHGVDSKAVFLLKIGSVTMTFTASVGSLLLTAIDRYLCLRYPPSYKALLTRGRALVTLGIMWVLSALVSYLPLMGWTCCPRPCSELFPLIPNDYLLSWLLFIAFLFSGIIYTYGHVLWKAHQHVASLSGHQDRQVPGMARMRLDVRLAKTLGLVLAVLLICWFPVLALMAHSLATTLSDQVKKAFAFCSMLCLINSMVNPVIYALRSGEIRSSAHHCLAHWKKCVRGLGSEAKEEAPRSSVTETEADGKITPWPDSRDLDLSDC
smiles,measurement,setting,value
"COCCOCCO[C@@H]1[C@@H](OP(=O)(O)O)[C@H](OCCOCCOC)[C@@H](OP(=O)(O)O)[C@@H](OP(=O)(O)O)[C@H]1OP(=O)(O)O [(OEG2)2-IP4, 4,6-Di-O-(methoxy-diethyleneglycol)-myo-inositol-1,2,3,5-tetrakis(phosphate)]",animals alive (Figure 5d),"[1]; 1x12.5, Day 0",12
same,survival (Figure 5d),"[1]; 1x12.5, Day 0",100%
same,animals alive (Figure 5d),"[1]; 1x12.5, Day 4.99",12
same,survival (Figure 5d),"[1]; 1x12.5, Day 4.99",100%
same,animals alive (Figure 5d),"[1]; 1x12.5, Day 5.01",11
same,survival (Figure 5d),"[1]; 1x12.5, Day 5.01",92%
same,animals alive (Figure 5d),"[1]; 1x12.5, Day 5.99",11
same,survival (Figure 5d),"[1]; 1x12.5, Day 5.99",92%
same,animals alive (Figure 5d),"[1]; 1x12.5, Day 6.01",9
same,survival (Figure 5d),"[1]; 1x12.5, Day 6.01",75%
same,animals alive (Figure 5d),"[1]; 1x12.5, Day 6.99",9
same,survival (Figure 5d),"[1]; 1x12.5, Day 6.99",75%
same,animals alive (Figure 5d),"[1]; 1x12.5, Day 7.01",7
same,survival (Figure 5d),"[1]; 1x12.5, Day 7.01",58%
same,animals alive (Figure 5d),"[1]; 1x12.5, Day 7.99",7
same,survival (Figure 5d),"[1]; 1x12.5, Day 7.99",58%
same,animals alive (Figure 5d),"[1]; 1x12.5, Day 8.01",7
same,survival (Figure 5d),"[1]; 1x12.5, Day 8.01",58%
same,animals alive (Figure 5d),"[1]; 1x12.5, Day 8.1",7
same,survival (Figure 5d),"[1]; 1x12.5, Day 8.1",58%
same,calcification in the femoral artery,[1]; 1x12.5 to 2x50 mg/kg/day,dose-dependently prevents calcification in the femoral artery
same,animals alive (Figure 5d),"[1]; 1x25, Day 0",12
same,survival (Figure 5d),"[1]; 1x25, Day 0",100%
same,animals alive (Figure 5d),"[1]; 1x25, Day 4.99",12
same,survival (Figure 5d),"[1]; 1x25, Day 4.99",100%
same,animals alive (Figure 5d),"[1]; 1x25, Day 5.01",12
same,survival (Figure 5d),"[1]; 1x25, Day 5.01",100%
same,animals alive (Figure 5d),"[1]; 1x25, Day 5.99",12
same,survival (Figure 5d),"[1]; 1x25, Day 5.99",100%
same,animals alive (Figure 5d),"[1]; 1x25, Day 6.01",10
same,survival (Figure 5d),"[1]; 1x25, Day 6.01",83%
same,animals alive (Figure 5d),"[1]; 1x25, Day 6.99",10
same,survival (Figure 5d),"[1]; 1x25, Day 6.99",83%
same,animals alive (Figure 5d),"[1]; 1x25, Day 7.01",8
same,survival (Figure 5d),"[1]; 1x25, Day 7.01",67%
same,animals alive (Figure 5d),"[1]; 1x25, Day 7.99",8
same,survival (Figure 5d),"[1]; 1x25, Day 7.99",67%
same,animals alive (Figure 5d),"[1]; 1x25, Day 8.01",8
same,survival (Figure 5d),"[1]; 1x25, Day 8.01",67%
same,animals alive (Figure 5d),"[1]; 1x25, Day 8.1",8
same,survival (Figure 5d),"[1]; 1x25, Day 8.1",67%
same,animals alive (Figure 5d),"[1]; 1x50, Day 0",19
same,survival (Figure 5d),"[1]; 1x50, Day 0",100%
same,animals alive (Figure 5d),"[1]; 1x50, Day 4.99",19
same,survival (Figure 5d),"[1]; 1x50, Day 4.99",100%
same,animals alive (Figure 5d),"[1]; 1x50, Day 5.01",19
same,survival (Figure 5d),"[1]; 1x50, Day 5.01",100%
same,animals alive (Figure 5d),"[1]; 1x50, Day 5.99",19
same,survival (Figure 5d),"[1]; 1x50, Day 5.99",100%
same,animals alive (Figure 5d),"[1]; 1x50, Day 6.01",19
same,survival (Figure 5d),"[1]; 1x50, Day 6.01",100%
same,animals alive (Figure 5d),"[1]; 1x50, Day 6.99",19
same,survival (Figure 5d),"[1]; 1x50, Day 6.99",100%
same,animals alive (Figure 5d),"[1]; 1x50, Day 7.01",17
same,survival (Figure 5d),"[1]; 1x50, Day 7.01",89%
same,animals alive (Figure 5d),"[1]; 1x50, Day 7.99",17
same,survival (Figure 5d),"[1]; 1x50, Day 7.99",89%
same,animals alive (Figure 5d),"[1]; 1x50, Day 8.01",15
same,survival (Figure 5d),"[1]; 1x50, Day 8.01",79%
same,animals alive (Figure 5d),"[1]; 1x50, Day 8.1",15
same,survival (Figure 5d),"[1]; 1x50, Day 8.1",79%
same,survival,[1]; 2 x 25 mg/kg s.c.,100%
same,animals alive (Figure 5d),"[1]; 2x25, Day 0",18
same,survival (Figure 5d),"[1]; 2x25, Day 0",100%
same,animals alive (Figure 5d),"[1]; 2x25, Day 4.99",18
same,survival (Figure 5d),"[1]; 2x25, Day 4.99",100%
same,animals alive (Figure 5d),"[1]; 2x25, Day 5.01",18
same,survival (Figure 5d),"[1]; 2x25, Day 5.01",100%
same,animals alive (Figure 5d),"[1]; 2x25, Day 5.99",18
same,survival (Figure 5d),"[1]; 2x25, Day 5.99",100%
same,animals alive (Figure 5d),"[1]; 2x25, Day 6.01",18
same,survival (Figure 5d),"[1]; 2x25, Day 6.01",100%
same,animals alive (Figure 5d),"[1]; 2x25, Day 6.99",18
same,survival (Figure 5d),"[1]; 2x25, Day 6.99",100%
same,animals alive (Figure 5d),"[1]; 2x25, Day 7.01",18
same,survival (Figure 5d),"[1]; 2x25, Day 7.01",100%
same,animals alive (Figure 5d),"[1]; 2x25, Day 7.99",18
same,survival (Figure 5d),"[1]; 2x25, Day 7.99",100%
same,animals alive (Figure 5d),"[1]; 2x25, Day 8.01",18
same,survival (Figure 5d),"[1]; 2x25, Day 8.01",100%
same,animals alive (Figure 5d),"[1]; 2x25, Day 8.1",18
same,survival (Figure 5d),"[1]; 2x25, Day 8.1",100%
same,animals alive (Figure 5d),"[1]; 2x50, Day 0",19
same,survival (Figure 5d),"[1]; 2x50, Day 0",100%
same,animals alive (Figure 5d),"[1]; 2x50, Day 4.99",19
same,survival (Figure 5d),"[1]; 2x50, Day 4.99",100%
same,animals alive (Figure 5d),"[1]; 2x50, Day 5.01",19
same,survival (Figure 5d),"[1]; 2x50, Day 5.01",100%
same,animals alive (Figure 5d),"[1]; 2x50, Day 5.99",19
same,survival (Figure 5d),"[1]; 2x50, Day 5.99",100%
same,animals alive (Figure 5d),"[1]; 2x50, Day 6.01",19
same,survival (Figure 5d),"[1]; 2x50, Day 6.01",100%
same,animals alive (Figure 5d),"[1]; 2x50, Day 6.99",19
same,survival (Figure 5d),"[1]; 2x50, Day 6.99",100%
same,animals alive (Figure 5d),"[1]; 2x50, Day 7.01",17
same,survival (Figure 5d),"[1]; 2x50, Day 7.01",89%
same,animals alive (Figure 5d),"[1]; 2x50, Day 7.99",17
same,survival (Figure 5d),"[1]; 2x50, Day 7.99",89%
same,animals alive (Figure 5d),"[1]; 2x50, Day 8.01",16
same,survival (Figure 5d),"[1]; 2x50, Day 8.01",84%
same,animals alive (Figure 5d),"[1]; 2x50, Day 8.1",16
same,survival (Figure 5d),"[1]; 2x50, Day 8.1",84%
same,bulk calcium in carotid artery and femoral artery,[1]; 2 × 25 mg/kg/day,significant reduction in bulk calcium
same,Mortality rate,[1]; 2 × 25 mg/kg/day s.c. (0/18),0%
same,inhibition at 10 µM,[2],12%
same,inhibition at 10 µM,[3],-22%
same,lowering of serum calcium,[4],No significant lowering of serum calcium
same,inhibition at 10 µM,[5],0%
